Data as given in patent publication US12391679B2, “Benzamide-substituted bicyclic imidazo- and pyrazolo-fused -pyridine, -pyrimide, and -pyridazine compounds for treatment of inflammatory diseases” (ONCO3R Therapeutics BV, priority 2019, dated 2025).

Columns and labels:
[1] = system: LPS-induced TNFα in monocytes; test: Monocytes assay: LPS-triggered TNFα (ELISA); type: cell-based, human; conditions: Homo sapiens, Monocyte, LPS-triggered TNFα inhibition
Summary of the method: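 TNFα secretion was triggered with 200 ng/mL LPS for 4 h in human blood CD14+ monocytes after 1 h compound pretreatment at 37 °C, with 0.2% final DMSO. Supernatants were analysed by streptavidin-HRP/luminol ELISA, and percentage inhibition at each concentration was derived relative to control wells.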

[2] = molecular target: T1, SIK1 (Homo sapiens, UniProt P57059); test: ADP-Glo kinase assay, SIK1; type: biochemical
T1 construct: purchased Carna Biosciences 02-131
T1 sequence (P57059 whole entry): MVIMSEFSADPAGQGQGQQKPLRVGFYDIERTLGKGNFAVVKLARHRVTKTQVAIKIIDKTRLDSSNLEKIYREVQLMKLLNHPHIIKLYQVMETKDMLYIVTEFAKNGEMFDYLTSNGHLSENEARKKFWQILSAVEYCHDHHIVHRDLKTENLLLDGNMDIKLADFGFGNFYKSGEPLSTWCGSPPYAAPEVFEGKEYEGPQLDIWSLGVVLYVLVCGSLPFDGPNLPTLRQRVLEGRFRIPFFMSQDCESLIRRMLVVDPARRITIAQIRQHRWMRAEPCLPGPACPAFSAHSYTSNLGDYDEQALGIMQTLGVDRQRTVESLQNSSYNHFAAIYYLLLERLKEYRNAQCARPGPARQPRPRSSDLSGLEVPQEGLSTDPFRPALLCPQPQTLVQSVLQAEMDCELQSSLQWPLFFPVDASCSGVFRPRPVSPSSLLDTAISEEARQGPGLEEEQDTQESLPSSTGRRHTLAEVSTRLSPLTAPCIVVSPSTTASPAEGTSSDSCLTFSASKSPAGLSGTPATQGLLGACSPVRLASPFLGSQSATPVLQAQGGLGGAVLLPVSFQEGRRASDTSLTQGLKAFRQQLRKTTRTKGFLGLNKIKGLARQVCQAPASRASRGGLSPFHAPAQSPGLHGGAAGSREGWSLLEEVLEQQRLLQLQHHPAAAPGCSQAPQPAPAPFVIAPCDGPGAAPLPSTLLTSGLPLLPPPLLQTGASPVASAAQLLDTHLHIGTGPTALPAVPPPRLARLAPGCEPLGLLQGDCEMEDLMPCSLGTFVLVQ
Summary of the method: (§1)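 Steps: add enzyme–substrate mixture; start with diluted ATP; incubate RT 120 min; add ADP-Glo Reagent to terminate and remove unconsumed ATP, 40 min; add detection reagent, 30 min; read luminescence. DMSO at 1% and staurosporine at 10 μM (final) define assay windows.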

[3] = molecular target: T2, SIK3 (Homo sapiens, UniProt Q9Y2K2); test: ADP-Glo kinase assay, SIK3; type: biochemical
T2 construct: purchased SignalChem S12-11G-100
T2 sequence (Q9Y2K2 59-365 limits assumed): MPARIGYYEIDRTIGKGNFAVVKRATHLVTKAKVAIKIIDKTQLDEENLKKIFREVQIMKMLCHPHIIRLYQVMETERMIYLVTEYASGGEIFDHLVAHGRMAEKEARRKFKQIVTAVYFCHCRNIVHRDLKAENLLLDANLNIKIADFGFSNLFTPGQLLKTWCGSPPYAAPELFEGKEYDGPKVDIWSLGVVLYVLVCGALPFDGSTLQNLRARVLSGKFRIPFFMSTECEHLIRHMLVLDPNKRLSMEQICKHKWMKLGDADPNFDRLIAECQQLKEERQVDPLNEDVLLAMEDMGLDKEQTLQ
Summary of the method: as §1

[4] = molecular target: T3, SIK2 (Homo sapiens, UniProt Q9H0K1); test: ADP-Glo kinase assay, SIK2; type: biochemical
T3 construct: purchased ThermoFisher Scientific PV4792
T3 sequence (Q9H0K1 whole entry): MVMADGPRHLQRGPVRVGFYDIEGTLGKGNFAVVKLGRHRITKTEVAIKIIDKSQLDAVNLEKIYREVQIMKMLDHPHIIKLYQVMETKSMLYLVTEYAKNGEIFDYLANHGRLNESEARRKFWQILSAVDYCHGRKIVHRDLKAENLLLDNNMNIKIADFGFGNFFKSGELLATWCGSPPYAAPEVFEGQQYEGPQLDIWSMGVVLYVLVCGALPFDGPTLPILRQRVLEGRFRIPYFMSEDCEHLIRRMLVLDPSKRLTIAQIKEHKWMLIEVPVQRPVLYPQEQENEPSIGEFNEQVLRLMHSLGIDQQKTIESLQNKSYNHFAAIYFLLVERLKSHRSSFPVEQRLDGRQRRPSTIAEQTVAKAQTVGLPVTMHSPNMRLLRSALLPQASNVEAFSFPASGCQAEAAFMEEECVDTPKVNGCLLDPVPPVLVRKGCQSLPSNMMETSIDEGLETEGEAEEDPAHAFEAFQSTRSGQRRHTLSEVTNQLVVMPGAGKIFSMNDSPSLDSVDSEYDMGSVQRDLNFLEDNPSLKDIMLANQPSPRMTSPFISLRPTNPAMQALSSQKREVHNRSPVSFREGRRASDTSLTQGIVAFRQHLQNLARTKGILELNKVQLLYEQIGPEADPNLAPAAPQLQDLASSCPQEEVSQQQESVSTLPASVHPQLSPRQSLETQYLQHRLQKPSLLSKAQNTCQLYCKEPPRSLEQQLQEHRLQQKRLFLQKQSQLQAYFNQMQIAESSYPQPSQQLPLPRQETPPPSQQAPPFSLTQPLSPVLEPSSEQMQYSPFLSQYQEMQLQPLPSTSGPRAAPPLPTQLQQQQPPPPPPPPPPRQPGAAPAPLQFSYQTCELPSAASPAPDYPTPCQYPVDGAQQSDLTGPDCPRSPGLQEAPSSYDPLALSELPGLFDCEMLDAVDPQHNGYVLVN
Summary of the method: as §1

Compound	EC50 [1]	IC50 [2]	IC50 [3]	IC50 [4]
COc1cc(-c2cnc3cc(C(C)(C#N)CO)ccn23)cc(OC(F)F)c1C(=O)NC1CC1 (stereo not drawn) [Cpd 176, 4-[7-(1-cyano-2-hydroxy-1-methyl-ethyl)imidazo[1,2-a]pyridin-3-yl]-N-cyclopropyl-2-(difluoromethoxy)-6-methoxy-benzamide]	100 to 1000 nM	> 500 nM	10 to 100 nM	> 500 nM
COc1cc(-c2cnc3cc(C4COCCN4C)ccn23)cc(OC(F)F)c1C(=O)NC1CC1 (stereo not drawn) [Cpd 193, N-cyclopropyl-2-(difluoromethoxy)-6-methoxy-4-[7-(4-methylmorpholin-3-yl)imidazo[1,2-a]pyridin-3-yl]benzamide]	100 to 1000 nM	> 500 nM	10 to 100 nM	> 500 nM
COCC(C)(C#N)c1ccn2c(-c3cc(OC)c(C(=O)NC4CC4)c(OC(F)F)c3)cnc2c1 (stereo not drawn) [Cpd 195, 4-[7-(1-cyano-2-methoxy-1-methyl-ethyl)imidazo[1,2-a]pyridin-3-yl]-N-cyclopropyl-2-(difluoromethoxy)-6-methoxy-benzamide]	100 to 1000 nM	> 500 nM	10 to 100 nM	> 500 nM
COc1cc(-c2cnc3cc(C4(O)CCC4)ccn23)cc(OC(F)F)c1C(=O)N[C@@H]1C[C@@H]1F [Cpd 205, 2-(difluoromethoxy)-N-[(1R,2S)-2-fluorocyclopropyl]-4-[7-(1-hydroxycyclobutyl)imidazo[1,2-a]pyridin-3-yl]-6-methoxy-benzamide]	100 to 1000 nM	> 500 nM	0.01 to 10 nM	100 to 500 nM
COc1cc(-c2cnc3cc(C4COC4)ccn23)cc(OC(F)F)c1C(=O)N[C@@H]1C[C@@H]1F [Cpd 206, 2-(difluoromethoxy)-N-[(1R,2S)-2-fluorocyclopropyl]-6-methoxy-4-[7-(oxetan-3-yl)imidazo[1,2-a]pyridin-3-yl]benzamide]	100 to 1000 nM	100 to 500 nM	0.01 to 10 nM	10 to 100 nM
COc1cc(-c2cnc3cc(C4(F)COC4)ccn23)cc(OC(F)F)c1C(=O)NC1CC1 [Cpd 207, N-cyclopropyl-2-(difluoromethoxy)-4-[7-(3-fluorooxetan-3-yl)imidazo[1,2-a]pyridin-3-yl]-6-methoxy-benzamide]	100 to 1000 nM	> 500 nM	0.01 to 10 nM	100 to 500 nM
COc1cc(-c2cnn3cc(C(C)(C)C#N)ccc23)cc(OC(F)F)c1C(=O)NC1CC1 [Cpd 208, 4-[6-(1-cyano-1-methyl-ethyl)pyrazolo[1,5-a]pyridin-3-yl]-N-cyclopropyl-2-(difluoromethoxy)-6-methoxy-benzamide]	0.1 to 100 nM	> 500 nM	10 to 100 nM	> 500 nM
COc1cc(-c2cnc3cc(C(C)(C)O)ccn23)cc(OC(F)F)c1C(=O)N[C@@H]1C[C@@H]1F [Cpd 211, 2-(difluoromethoxy)-N-[(1R,2S)-2-fluorocyclopropyl]-4-[7-(1-hydroxy-1-methyl-ethyl)imidazo[1,2-a]pyridin-3-yl]-6-methoxy-benzamide]	100 to 1000 nM	> 500 nM	0.01 to 10 nM	100 to 500 nM
COc1cc(-c2cnn3cc(C4COC4)ccc23)cc(OC(F)F)c1C(=O)NC1CC1 [Cpd 216, N-cyclopropyl-2-(difluoromethoxy)-6-methoxy-4-[6-(oxetan-3-yl)pyrazolo[1,5-a]pyridin-3-yl]benzamide]	100 to 1000 nM	100 to 500 nM	10 to 100 nM	100 to 500 nM
COc1cc(-c2cnn3cc(C4COC4)ccc23)cc(OC(F)F)c1C(=O)N[C@@H]1C[C@@H]1F [Cpd 218, 2-(difluoromethoxy)-N-[(1R,2S)-2-fluorocyclopropyl]-6-methoxy-4-[6-(oxetan-3-yl)pyrazolo[1,5-a]pyridin-3-yl]benzamide]	0.1 to 100 nM	100 to 500 nM	0.01 to 10 nM	10 to 100 nM
COc1cc(-c2cnc3cc(C4(F)COC4)ccn23)cc(OC(F)F)c1C(=O)N[C@@H]1C[C@@H]1F [Cpd 224, 2-(difluoromethoxy)-N-[(1R,2S)-2-fluorocyclopropyl]-4-[7-(3-fluorooxetan-3-yl)imidazo[1,2-a]pyridin-3-yl]-6-methoxy-benzamide]	100 to 1000 nM	100 to 500 nM	0.01 to 10 nM	10 to 100 nM
COc1cc(-c2cnn3cc(C(C)(C)O)ccc23)cc(OC(F)F)c1C(=O)N[C@@H]1C[C@@H]1F [Cpd 227, 2-(difluoromethoxy)-N-[(1R,2S)-2-fluorocyclopropyl]-4-[6-(1-hydroxy-1-methyl-ethyl)pyrazolo[1,5-a]pyridin-3-yl]-6-methoxy-benzamide]	100 to 1000 nM	> 500 nM	0.01 to 10 nM	100 to 500 nM
COc1cc(-c2cnc3cc(C(C)(C)C#N)cnn23)cc(OC(F)F)c1C(=O)N[C@@H]1C[C@@H]1F [Cpd 228, 4-[7-(1-cyano-1-methyl-ethyl)imidazo[1,2-b]pyridazin-3-yl]-2-(difluoromethoxy)-N-[(1R,2S)-2-fluorocyclopropyl]-6-methoxy-benzamide]	100 to 1000 nM	> 500 nM	0.01 to 10 nM	100 to 500 nM
COc1cc(-c2cnn3cc(C(C)(C)C#N)cnc23)cc(OC(F)F)c1C(=O)N[C@@H]1C[C@@H]1F [Cpd 231, 4-[6-(1-cyano-1-methyl-ethyl)pyrazolo[1,5-a]pyrimidin-3-yl]-2-(difluoromethoxy)-N-[(1R,2S)-2-fluorocyclopropyl]-6-methoxy-benzamide]	100 to 1000 nM	> 500 nM	0.01 to 10 nM	> 500 nM
COc1cc(-c2cnn3cc(C4COCCO4)ccc23)cc(OC(F)F)c1C(=O)NC1CC1 (stereo not drawn) [Cpd 232, N-cyclopropyl-2-(difluoromethoxy)-4-[6-(1,4-dioxan-2-yl)pyrazolo[1,5-a]pyridin-3-yl]-6-methoxy-benzamide]	100 to 1000 nM	> 500 nM	0.01 to 10 nM	100 to 500 nM
COc1cc(-c2cnn3cc(C4(C#N)CC4)ccc23)cc(OC(F)F)c1C(=O)N[C@@H]1C[C@@H]1F [Cpd 235, 4-[6-(1-cyanocyclopropyl)pyrazolo[1,5-a]pyridin-3-yl]-2-(difluoromethoxy)-N-[(1R,2S)-2-fluorocyclopropyl]-6-methoxy-benzamide]	0.1 to 100 nM	100 to 500 nM	0.01 to 10 nM	10 to 100 nM
COc1cc(-c2cnn3cc(C(C)(C)CO)ccc23)cc(OC(F)F)c1C(=O)NC1CC1 [Cpd 236, N-cyclopropyl-2-(difluoromethoxy)-4-[6-(2-hydroxy-1,1-dimethyl-ethyl)pyrazolo[1,5-a]pyridin-3-yl]-6-methoxy-benzamide]	100 to 1000 nM	> 500 nM	10 to 100 nM	> 500 nM
COc1cc(-c2cnn3cc(C4(C#N)CCOCC4)ccc23)cc(OC(F)F)c1C(=O)NC1CC1 [Cpd 237, 4-[6-(4-cyanotetrahydropyran-4-yl)pyrazolo[1,5-a]pyridin-3-yl]-N-cyclopropyl-2-(difluoromethoxy)-6-methoxy-benzamide]	100 to 1000 nM	> 500 nM	0.01 to 10 nM	> 500 nM
COc1cc(-c2cnn3cc(C(C)(C)CO)ccc23)cc(OC(F)F)c1C(=O)N[C@@H]1C[C@@H]1F [Cpd 242, 2-(difluoromethoxy)-N-[(1R,2S)-2-fluorocyclopropyl]-4-[6-(2-hydroxy-1,1-dimethyl-ethyl)pyrazolo[1,5-a]pyridin-3-yl]-6-methoxy-benzamide]	0.1 to 100 nM	> 500 nM	0.01 to 10 nM	> 500 nM
COc1cc(-c2cnn3cc(C4(C#N)CCOCC4)ccc23)cc(OC(F)F)c1C(=O)N[C@@H]1C[C@@H]1F [Cpd 243, 4-[6-(4-cyanotetrahydropyran-4-yl)pyrazolo[1,5-a]pyridin-3-yl]-2-(difluoromethoxy)-N-[(1R,2S)-2-fluorocyclopropyl]-6-methoxy-benzamide]	100 to 1000 nM	> 500 nM	0.01 to 10 nM	> 500 nM
COc1cc(-c2cnn3cc(C(C)(C)C#N)ccc23)cc(OC)c1C(=O)N[C@@H]1C[C@@H]1F [Cpd 245, 4-[6-(1-cyano-1-methyl-ethyl)pyrazolo[1,5-a]pyridin-3-yl]-N-[(1R,2S)-2-fluorocyclopropyl]-2,6-dimethoxy-benzamide]	100 to 1000 nM	> 500 nM	10 to 100 nM	> 500 nM
COc1cc(-c2cnn3cc(C4(C(N)=O)CCC4)ccc23)cc(OC(F)F)c1C(=O)N[C@@H]1C[C@@H]1F [Cpd 254, 4-[6-(1-carbamoylcyclobutyl)pyrazolo[1,5-a]pyridin-3-yl]-2-(difluoromethoxy)-N-[(1R,2S)-2-fluorocyclopropyl]-6-methoxy-benzamide]	100 to 1000 nM	> 500 nM	0.01 to 10 nM	> 500 nM
COc1cc(-c2cnn3cc(C(C)(C)N)ccc23)cc(OC(F)F)c1C(=O)N[C@@H]1C[C@@H]1F [Cpd 256, 4-[6-(1-amino-1-methyl-ethyl)pyrazolo[1,5-a]pyridin-3-yl]-2-(difluoromethoxy)-N-[(1R,2S)-2-fluorocyclopropyl]-6-methoxy-benzamide]	100 to 1000 nM	> 500 nM	0.01 to 10 nM	> 500 nM
COc1cc(-c2cnn3cc(C4(N)CCC4)ccc23)cc(OC(F)F)c1C(=O)N[C@@H]1C[C@@H]1F [Cpd 261, 4-[6-(1-aminocyclobutyl)pyrazolo[1,5-a]pyridin-3-yl]-2-(difluoromethoxy)-N-[(1R,2S)-2-fluorocyclopropyl]-6-methoxy-benzamide]	100 to 1000 nM	> 500 nM	0.01 to 10 nM	> 500 nM
